A short description of series [1]: Liver microsome Clint (mouse). The settings on record: liver microsomes. The series is classed as in vitro ADME. For orientation: Liver microsomes are a subcellular fraction often used to study metabolism.
The target in the next series is CYP2D6 (Homo sapiens, UniProt P10635). Nature of the series: CYP450 inhibition 2D6. The class given is in vitro ADME.
For another series, the system named is human lymphocytes. Description: In vitro micronucleus genotoxicity assay. The settings on record: with and without S9, 3 and 28 h, 0.25 to 260 µg per mL. The series is classed as cell-based.
Series [2] in a line: Single-dose oral and intravenous murine PK. The series is classed as in vivo, female CD-1 mice. As to conditions: female, mouse, plasma, CD-1 mice. The protocol:
Single-dose oral and intravenous murine PK studies were performed by WuXi Biologics (Wuxi, China) in female CD-1 mice in compliance with animal care guidelines. […] Single-dose oral calf PK studies were performed at the University of Vermont in compliance with animal care guidelines and with approval from the University of Vermont Institutional Animal Care and Use Committee. […] Doses were squirted into the calves’ mouths during interruptions in bottle feeding. Fecal samples were collected at the indicated times by manual anal stimulation. […] Fecal AN7973 was measured by extracting AN7973 from homogenized feces with acetonitrile. For this, feces were added to 4 volumes of acetonitrile (4 mL per g), mixed by vortexing for 5 min at room temperature, and then centrifuged. […] The fecal extraction method was validated with a standard curve of compound added to control feces. […] Non-compartmental analysis of the mean concentration-time profiles was performed using Phoenix version 6.4 (Pharsight Corporation, Mountain View, CA, USA). Concentrations below the limit of quantitation were assigned values of zero for generation of mean concentrations. Predictions of multidose exposures were generated by non-parametric superposition of the single-dose PK data using Phoenix version 6.4 (Supplementary Fig. 5).

The subject of series [3] is C. parvum intracellular DNA synthesis. Description: EdU incorporation DNA replication assay. The series is classed as cell-based, Cryptosporidium parvum. As to conditions: 2 × EC90 = 0.42 µM. As to the method:
The invasion assay, DNA replication assay, asexual to sexual stage conversion, and time-kill curve assays were performed using fluorescence microscopy to enumerate parasites and host cell nuclei. Staining protocols are individually described for each assay. Unless noted otherwise, the details of image acquisition were as follows. An inverted Nikon Eclipse Ti2000 microscope with an automated stage and Perfect Focus was used with NIS-Elements Advanced Research software (Nikon, USA, version 4.30.01) to image the wells. The microscope was programmed to focus on the center of each well and then take a 3 × 3 composite image per well using a 20 × (0.45 NA) objective. Images were exported as .tiff files and parasites and host nuclei counted using a custom macro on ImageJ (National Institutes of Health, version 1.52a). Data were analyzed using Microsoft Excel and GraphPad Prism (version 6.01). Measurement of DNA replication was used as a surrogate marker of Cryptosporidium development within HCT-8 cells. […] Images were acquired by focusing on the parasite focal plane, which is on top of the host cell monolayer, using a ×40 objective (0.7 NA) and EdU and lectin numbers were quantified using ImageJ software.

In another series the target is T1, CYP1A2 (Homo sapiens, UniProt P05177).
T1 sequence (P05177 1-516): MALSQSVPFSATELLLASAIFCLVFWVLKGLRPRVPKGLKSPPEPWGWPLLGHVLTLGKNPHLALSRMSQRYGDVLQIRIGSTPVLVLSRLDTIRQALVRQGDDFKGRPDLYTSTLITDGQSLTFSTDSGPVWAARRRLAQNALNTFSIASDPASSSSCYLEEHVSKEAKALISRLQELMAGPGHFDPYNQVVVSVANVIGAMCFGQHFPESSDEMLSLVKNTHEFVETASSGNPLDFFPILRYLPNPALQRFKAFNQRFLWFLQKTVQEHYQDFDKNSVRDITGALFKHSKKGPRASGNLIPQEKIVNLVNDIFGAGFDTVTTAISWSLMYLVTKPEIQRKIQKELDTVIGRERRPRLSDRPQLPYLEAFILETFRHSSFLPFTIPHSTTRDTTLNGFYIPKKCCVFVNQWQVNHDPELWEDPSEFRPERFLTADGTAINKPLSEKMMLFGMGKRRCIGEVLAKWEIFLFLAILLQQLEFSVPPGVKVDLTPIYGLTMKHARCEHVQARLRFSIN
Description: CYP450 inhibition 1A2. The class given is in vitro ADME.

The nature of another series: Solubility PBS pH 7.4. The series is classed as physicochemical. As to conditions: aqueous buffer.
The mark [4] stands for this setting: 2 mg/kg, intravenous 2 mg per kg.

Converted amounts (≈) assume the structure as drawn. Some results are limits rather than exact numbers.

Data on one compound can be found in publication PMC6597546, “Identification of a potent benzoxaborole drug candidate for treating cryptosporidiosis” (Nature Communications, 2019).

CYP2D6, sequence (P10635 whole entry): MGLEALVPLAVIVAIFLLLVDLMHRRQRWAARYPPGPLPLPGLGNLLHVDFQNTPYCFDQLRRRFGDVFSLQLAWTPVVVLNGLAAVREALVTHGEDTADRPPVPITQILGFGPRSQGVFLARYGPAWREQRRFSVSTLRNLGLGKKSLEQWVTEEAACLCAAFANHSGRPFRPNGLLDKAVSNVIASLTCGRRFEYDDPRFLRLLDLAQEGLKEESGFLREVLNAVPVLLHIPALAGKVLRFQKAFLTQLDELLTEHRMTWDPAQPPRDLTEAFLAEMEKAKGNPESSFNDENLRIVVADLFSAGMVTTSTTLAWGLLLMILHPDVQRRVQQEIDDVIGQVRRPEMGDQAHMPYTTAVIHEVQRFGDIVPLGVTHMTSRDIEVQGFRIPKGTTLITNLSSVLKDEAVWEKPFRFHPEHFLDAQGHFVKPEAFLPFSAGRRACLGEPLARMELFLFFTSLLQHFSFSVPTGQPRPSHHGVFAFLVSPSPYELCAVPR

One may read the microsomal CLint as the rate of metabolic loss divided by the concentration. As a reminder, the inhibition is the percentage by which the read-out fell short of the control. Higher therefore signals a strong effect. One may read the AUC(0-inf) as total exposure, with the tail of the curve extrapolated. Lower therefore signals low exposure. By Cmax is commonly meant the highest concentration seen after dosing. A word on the half-life: it is the time needed for the level to fall by half in the phase considered. A lower half-life goes with rapid decline. For orientation: bioavailability means the share of a dose that reaches the circulation, judged against a reference dose that is usually intravenous. What is called solubility is the dissolved amount per volume that the medium holds. `CC1(C)OB(O)c2cc(NC(=O)c3ccc(-n4cccn4)cc3Cl)ccc21` [AN7973] had a microsomal CLint in series [1] of under 1 µL/min/mg. This compound gave an inhibition at 10 µM against CYP2D6 of 0%. The In vitro micronucleus result with human lymphocytes is given as “negative”. Moreover, in series [2] (setting [4]), the AUC(0-inf) worked out at 49700 ng·h/mL, the concentration peaked (Cmax) at 6820 ng/mL, the clearance is 0.667 mL/min/kg and the half-life was 6 h. Also, in series [2] (10 mg/kg, oral 10 mg per kg), the AUC(0-inf) was determined as 92700 ng·h/mL, the Cmax is 8630 ng/mL and the half-life is 6.6 h. In addition, in series [2] (10 mg/kg, oral 10 mg per kg, read-out: bioavailability F), the bioavailability stood at 37%. For the same compound, the “effect on intracellular DNA synthesis (EdU incorporation)” value in series [3] was “arrested new DNA synthesis”. The inhibition at 10 µM at CYP1A2 was 1%. Further, the concentration in solution in the series “Solubility PBS pH 7.4” (solubility) was 126 µM (≈ 48.1 µg/mL).
